Measurements: PMC7026418, “The kinase polypharmacology landscape of clinical PARP inhibitors” (Scientific Reports, 2020)
Read-outs that look alike come from different tables or passages of the source. Blank lines part the entries; values can stand above or below the compound they belong to.

Key:
Test in all cases: biochemical
Parameters in all cases: DiscoveRx KINOMEscan active site-directed competition binding; percent of control kinase bound to immobilised ligand
[1] = target: CLK3 (Homo sapiens, UniProt P49761)
Sequence of CLK3 (P49761 whole entry): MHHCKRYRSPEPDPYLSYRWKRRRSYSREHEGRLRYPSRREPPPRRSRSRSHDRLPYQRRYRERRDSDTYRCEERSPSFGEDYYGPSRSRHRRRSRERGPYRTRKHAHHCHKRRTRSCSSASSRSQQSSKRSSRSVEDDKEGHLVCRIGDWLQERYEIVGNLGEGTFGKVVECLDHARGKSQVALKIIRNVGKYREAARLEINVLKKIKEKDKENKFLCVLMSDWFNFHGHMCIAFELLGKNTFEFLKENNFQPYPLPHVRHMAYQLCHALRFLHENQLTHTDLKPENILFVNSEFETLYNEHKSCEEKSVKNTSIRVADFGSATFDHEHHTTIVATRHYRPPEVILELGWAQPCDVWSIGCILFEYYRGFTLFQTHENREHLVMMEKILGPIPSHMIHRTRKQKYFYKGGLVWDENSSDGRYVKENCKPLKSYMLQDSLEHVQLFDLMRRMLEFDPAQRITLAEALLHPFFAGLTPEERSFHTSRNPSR

[2] = target: T1, FLT3(D835Y) (Homo sapiens, UniProt P36888, D835Y)
T1 sequence (P36888 1-993 D835Y): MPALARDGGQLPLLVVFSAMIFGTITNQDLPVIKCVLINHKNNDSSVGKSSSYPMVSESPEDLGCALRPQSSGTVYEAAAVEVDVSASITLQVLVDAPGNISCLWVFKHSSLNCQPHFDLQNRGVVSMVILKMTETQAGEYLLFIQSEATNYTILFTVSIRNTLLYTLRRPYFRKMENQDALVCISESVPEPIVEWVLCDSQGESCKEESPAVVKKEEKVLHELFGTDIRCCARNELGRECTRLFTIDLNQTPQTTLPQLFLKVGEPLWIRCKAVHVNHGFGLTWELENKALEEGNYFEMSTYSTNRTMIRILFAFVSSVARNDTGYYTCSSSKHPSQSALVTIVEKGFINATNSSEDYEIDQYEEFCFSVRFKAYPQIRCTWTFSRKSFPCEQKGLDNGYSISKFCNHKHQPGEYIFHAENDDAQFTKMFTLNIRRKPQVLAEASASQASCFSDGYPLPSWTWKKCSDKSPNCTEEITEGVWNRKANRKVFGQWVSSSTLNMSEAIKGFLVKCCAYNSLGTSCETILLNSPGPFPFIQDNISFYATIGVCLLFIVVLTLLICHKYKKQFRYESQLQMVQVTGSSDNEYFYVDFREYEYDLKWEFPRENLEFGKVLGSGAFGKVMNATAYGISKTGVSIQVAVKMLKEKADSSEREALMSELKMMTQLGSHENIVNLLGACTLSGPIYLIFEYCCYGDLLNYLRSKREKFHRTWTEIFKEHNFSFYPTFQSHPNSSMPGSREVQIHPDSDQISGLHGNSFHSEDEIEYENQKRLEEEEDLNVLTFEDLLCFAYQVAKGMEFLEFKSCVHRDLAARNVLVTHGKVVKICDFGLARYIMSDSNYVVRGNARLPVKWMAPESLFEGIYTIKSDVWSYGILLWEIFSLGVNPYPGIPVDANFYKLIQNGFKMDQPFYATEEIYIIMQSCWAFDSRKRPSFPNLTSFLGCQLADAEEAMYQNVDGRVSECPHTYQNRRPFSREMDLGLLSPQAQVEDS

[3] = target: T2, NEK2 (Homo sapiens, UniProt P51955)
T2 sequence (P51955 1-445): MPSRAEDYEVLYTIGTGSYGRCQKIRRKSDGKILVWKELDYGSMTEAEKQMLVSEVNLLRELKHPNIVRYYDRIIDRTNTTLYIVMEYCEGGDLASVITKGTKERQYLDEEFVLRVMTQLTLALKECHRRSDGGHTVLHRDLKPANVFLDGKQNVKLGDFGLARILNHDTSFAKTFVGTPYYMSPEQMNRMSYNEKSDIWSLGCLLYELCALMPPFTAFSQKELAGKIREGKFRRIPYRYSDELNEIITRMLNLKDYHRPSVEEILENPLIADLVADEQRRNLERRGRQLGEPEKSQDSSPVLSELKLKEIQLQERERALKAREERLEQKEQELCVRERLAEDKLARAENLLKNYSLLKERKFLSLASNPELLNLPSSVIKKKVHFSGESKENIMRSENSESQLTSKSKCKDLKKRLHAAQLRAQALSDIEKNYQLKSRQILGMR

[4] = target: FGFR4 (Homo sapiens, UniProt P22455)
Sequence of FGFR4 (P22455 whole entry): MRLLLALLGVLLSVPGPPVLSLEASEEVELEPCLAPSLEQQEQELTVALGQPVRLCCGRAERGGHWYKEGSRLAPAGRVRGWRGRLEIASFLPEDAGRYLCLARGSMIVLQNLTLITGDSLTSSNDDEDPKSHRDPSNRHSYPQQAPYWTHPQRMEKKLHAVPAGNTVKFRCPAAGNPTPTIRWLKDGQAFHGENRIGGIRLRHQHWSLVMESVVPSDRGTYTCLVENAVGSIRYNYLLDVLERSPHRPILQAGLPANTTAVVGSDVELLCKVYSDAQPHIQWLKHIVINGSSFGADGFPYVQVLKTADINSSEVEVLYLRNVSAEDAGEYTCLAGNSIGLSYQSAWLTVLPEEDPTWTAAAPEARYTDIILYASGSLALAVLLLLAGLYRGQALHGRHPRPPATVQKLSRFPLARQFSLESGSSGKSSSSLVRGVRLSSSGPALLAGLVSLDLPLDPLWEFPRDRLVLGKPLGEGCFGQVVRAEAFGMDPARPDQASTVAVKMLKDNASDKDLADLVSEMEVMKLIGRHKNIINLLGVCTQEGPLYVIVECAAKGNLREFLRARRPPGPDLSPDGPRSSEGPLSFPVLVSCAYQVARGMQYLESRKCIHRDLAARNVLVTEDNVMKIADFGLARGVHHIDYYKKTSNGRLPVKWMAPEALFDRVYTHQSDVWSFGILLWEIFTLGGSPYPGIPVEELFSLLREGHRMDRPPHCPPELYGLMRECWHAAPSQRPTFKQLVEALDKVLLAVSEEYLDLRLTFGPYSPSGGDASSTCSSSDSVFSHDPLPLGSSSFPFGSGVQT

[5] = target: PRKCD (Homo sapiens, UniProt Q05655)
Sequence of PRKCD (Q05655 whole entry): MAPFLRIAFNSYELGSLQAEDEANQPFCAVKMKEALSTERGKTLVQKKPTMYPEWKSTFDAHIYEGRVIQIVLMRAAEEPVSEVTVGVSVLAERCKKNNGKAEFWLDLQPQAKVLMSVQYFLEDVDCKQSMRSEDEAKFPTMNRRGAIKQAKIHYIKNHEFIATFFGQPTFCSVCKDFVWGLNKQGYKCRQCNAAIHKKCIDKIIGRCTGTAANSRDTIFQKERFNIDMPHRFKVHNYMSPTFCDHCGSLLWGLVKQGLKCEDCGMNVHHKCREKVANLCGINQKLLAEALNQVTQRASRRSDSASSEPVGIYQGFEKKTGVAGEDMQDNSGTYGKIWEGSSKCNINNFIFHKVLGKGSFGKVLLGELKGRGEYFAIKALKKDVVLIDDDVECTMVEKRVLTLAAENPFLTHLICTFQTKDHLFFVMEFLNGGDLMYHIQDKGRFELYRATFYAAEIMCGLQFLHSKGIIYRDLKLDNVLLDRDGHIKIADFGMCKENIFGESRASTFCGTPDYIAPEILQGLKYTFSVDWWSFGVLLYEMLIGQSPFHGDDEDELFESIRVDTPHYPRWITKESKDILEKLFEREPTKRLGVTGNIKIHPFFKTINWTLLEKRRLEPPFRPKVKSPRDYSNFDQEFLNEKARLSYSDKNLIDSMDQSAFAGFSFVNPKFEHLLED

[6] = target: EPHA5 (Homo sapiens, UniProt P54756)
Sequence of EPHA5 (P54756 whole entry): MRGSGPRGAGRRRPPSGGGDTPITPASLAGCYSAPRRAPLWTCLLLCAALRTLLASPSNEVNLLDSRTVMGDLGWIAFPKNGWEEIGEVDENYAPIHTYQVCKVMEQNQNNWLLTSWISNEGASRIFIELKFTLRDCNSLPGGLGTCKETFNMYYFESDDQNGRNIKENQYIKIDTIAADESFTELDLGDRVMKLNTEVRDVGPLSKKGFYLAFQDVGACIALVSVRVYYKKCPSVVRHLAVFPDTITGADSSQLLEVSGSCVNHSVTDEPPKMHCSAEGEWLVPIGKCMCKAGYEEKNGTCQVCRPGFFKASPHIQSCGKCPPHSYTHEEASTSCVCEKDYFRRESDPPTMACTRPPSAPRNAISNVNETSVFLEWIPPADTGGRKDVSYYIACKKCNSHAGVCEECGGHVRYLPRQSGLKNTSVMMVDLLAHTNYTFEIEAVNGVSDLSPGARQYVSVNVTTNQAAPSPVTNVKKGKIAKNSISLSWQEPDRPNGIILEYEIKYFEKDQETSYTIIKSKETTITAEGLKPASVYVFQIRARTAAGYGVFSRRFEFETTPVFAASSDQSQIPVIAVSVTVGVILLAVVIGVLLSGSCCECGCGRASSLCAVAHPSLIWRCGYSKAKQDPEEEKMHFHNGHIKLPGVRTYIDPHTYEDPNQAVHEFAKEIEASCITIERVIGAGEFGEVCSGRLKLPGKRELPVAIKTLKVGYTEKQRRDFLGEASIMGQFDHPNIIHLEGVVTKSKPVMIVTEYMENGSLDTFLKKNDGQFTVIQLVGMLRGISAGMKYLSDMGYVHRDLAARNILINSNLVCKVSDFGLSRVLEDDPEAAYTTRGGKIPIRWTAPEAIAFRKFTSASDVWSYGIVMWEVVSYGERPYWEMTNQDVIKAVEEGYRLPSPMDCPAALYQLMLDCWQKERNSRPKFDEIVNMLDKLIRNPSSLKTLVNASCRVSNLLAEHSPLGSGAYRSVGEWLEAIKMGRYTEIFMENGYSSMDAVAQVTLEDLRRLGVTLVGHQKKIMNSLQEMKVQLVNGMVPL

[7] = target: CDK8 (Homo sapiens, UniProt P49336)
Sequence of CDK8 (P49336 whole entry): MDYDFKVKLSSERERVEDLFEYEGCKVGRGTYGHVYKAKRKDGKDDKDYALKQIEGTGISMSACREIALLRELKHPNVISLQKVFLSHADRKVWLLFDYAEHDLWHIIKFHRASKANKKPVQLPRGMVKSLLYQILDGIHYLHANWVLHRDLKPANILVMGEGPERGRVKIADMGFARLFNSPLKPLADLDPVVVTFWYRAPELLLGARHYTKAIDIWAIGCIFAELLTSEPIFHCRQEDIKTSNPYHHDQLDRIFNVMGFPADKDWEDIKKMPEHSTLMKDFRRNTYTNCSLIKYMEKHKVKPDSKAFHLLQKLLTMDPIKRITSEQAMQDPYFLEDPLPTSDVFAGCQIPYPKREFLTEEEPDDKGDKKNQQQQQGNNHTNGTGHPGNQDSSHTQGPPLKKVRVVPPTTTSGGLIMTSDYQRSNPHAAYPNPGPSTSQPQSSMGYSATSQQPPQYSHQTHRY

[8] = target: CAMK2B (Homo sapiens, UniProt Q13554)
Sequence of CAMK2B (Q13554 whole entry): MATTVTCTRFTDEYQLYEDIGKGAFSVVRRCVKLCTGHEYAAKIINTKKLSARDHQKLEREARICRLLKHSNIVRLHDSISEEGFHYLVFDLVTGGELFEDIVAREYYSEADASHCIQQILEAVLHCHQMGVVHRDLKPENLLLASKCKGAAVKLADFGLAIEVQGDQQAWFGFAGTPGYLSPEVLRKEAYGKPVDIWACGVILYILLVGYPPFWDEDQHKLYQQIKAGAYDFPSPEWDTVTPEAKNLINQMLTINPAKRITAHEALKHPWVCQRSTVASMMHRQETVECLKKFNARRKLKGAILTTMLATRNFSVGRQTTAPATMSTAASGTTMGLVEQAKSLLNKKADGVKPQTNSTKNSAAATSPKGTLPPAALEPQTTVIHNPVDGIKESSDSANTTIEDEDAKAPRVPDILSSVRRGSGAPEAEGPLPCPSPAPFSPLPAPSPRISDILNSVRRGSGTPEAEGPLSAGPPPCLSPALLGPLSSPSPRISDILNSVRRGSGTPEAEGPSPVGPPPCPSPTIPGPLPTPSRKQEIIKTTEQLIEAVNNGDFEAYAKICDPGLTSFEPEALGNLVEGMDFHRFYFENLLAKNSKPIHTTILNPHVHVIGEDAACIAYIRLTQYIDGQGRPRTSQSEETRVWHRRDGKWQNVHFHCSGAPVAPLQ

[9] = read-out: Niraparib (MK-4827) / %Ctrl @ 10000nM
[10] = read-out: Rucaparib / %Ctrl @ 10000nM, binding competition, % of control
[11] = read-out: Olaparib / %Ctrl @ 10000nM
[12] = read-out: Talazoparib (BMN 673) / %Ctrl @ 10000nM

SMILES: NC(=O)c1cccc2cn(-c3ccc([C@@H]4CCCNC4)cc3)nc12 [Niraparib]
- percent of control binding at 10 µM [1, 9]: 100%
- percent of control binding at 10 µM [2, 9]: 54%
- percent of control binding at 10 µM [3, 9]: 98%
- percent of control binding at 10 µM [4, 9]: 94%
- percent of control binding at 10 µM [5, 9]: 93%
- percent of control binding at 10 µM [6, 9]: 94%
- percent of control binding at 10 µM [7, 9]: 68%
- percent of control binding at 10 µM [8, 9]: 90%

- percent of control binding at 10 µM [1, 10]: 75%
- Rucaparib / %Ctrl @ 10000nM ([2]; binding competition, % of control): 24%
- percent of control binding at 10 µM [3, 10]: 87%
- percent of control binding at 10 µM [4, 10]: 91%
- percent of control binding at 10 µM [5, 10]: 83%
- percent of control binding at 10 µM [6, 10]: 93%
- percent of control binding at 10 µM [7, 10]: 86%
- percent of control binding at 10 µM [8, 10]: 86%
SMILES: CNCc1ccc(-c2[nH]c3cc(F)cc4c3c2CCNC4=O)cc1 [Rucaparib]

- percent of control binding at 10 µM [1, 11]: 89%
- percent of control binding at 10 µM [2, 11]: 87%
- percent of control binding at 10 µM [3, 11]: 100%
- percent of control binding at 10 µM [4, 11]: 82%
- percent of control binding at 10 µM [5, 11]: 95%
- percent of control binding at 10 µM [6, 11]: 96%
- percent of control binding at 10 µM [7, 11]: 100%
- percent of control binding at 10 µM [8, 11]: 96%
SMILES: O=C(c1cc(Cc2n[nH]c(=O)c3ccccc23)ccc1F)N1CCN(C(=O)C2CC2)CC1 [Olaparib]

- percent of control binding at 10 µM [1, 12]: 17%
- percent of control binding at 10 µM [2, 12]: 96%
- percent of control binding at 10 µM [3, 12]: 100%
- percent of control binding at 10 µM [4, 12]: 100%
- percent of control binding at 10 µM [5, 12]: 86%
- percent of control binding at 10 µM [6, 12]: 96%
- percent of control binding at 10 µM [7, 12]: 99%
- percent of control binding at 10 µM [8, 12]: 92%
SMILES: Cn1ncnc1[C@H]1c2n[nH]c(=O)c3cc(F)cc(c23)N[C@@H]1c1ccc(F)cc1 [Talazoparib]
